Paper PMC10578023 (Cell Communication and Signaling : CCS, 2023)

Tests used:
[1] = tested on: panel of 207 kinase proteins; assay: Kinase selectivity panel, ADP-Glo kinase assay; format: biochemical, human; conditions: 1 μM
Description: The selectivity of QL-1200186 was measured using a panel of 207 kinase proteins. QL-1200186 (final concentration = 1 μM) was placed in a 384-well plate. Different kinase solutions were configured in kinase buffer, HEPES (50 mM), MgCl2 (10 mM), 0.01% Brij, dithiothreitol (2 mM), and then transferred to 384-well plates. After incubation for 10 min at RT, the substrate and adenosine triphosphate were added, and the reaction was allowed to continue for 60 min. Kinase selectivity was determined by the ADP-Glo™ Kinase Assay (V9103; Promega, Fitchburg, WI, USA). Finally, a microplate reader (BMG Labtech, Ortenberg, Germany) was used to measure the luminescence signal. After data analysis, heatmaps and kinase selection trees were drawn using Prism 8.0.2 (GraphPad, La Jolla, CA, USA) and KinMap (www.kinmap.org/), respectively.

[2] = Liver microsome metabolic stability; format: in vitro ADME
Description: (§1) The ADME properties of QL-1200186 in vitro were measured by the following assays: Caco-2 permeability assay, CYP inhibition assay, protein binding assay, and liver microsome assay. Each assay was performed as previously described.

Plasma protein binding = format: in vitro ADME
Description: as §1

TYK2/JAK1 [3] = assay: IFNα-induced pSTAT1 in CD19+ B cells of human PBMCs; format: cell-based
Description: The reaction was terminated by collecting cells for surface staining. Cells were stained with anti-CD3 FITC (300406; Biolegend, San Diego, CA, USA), anti-CD19 APC (555415; BD Biosciences) or aqua fluorescent reactive dye BV421 (L34966A; Invitrogen, Carlsbad, CA, USA) antibodies for 20 min. After washing, fixation buffer (557870; BD Biosciences) was added and incubated for 10 min. Cells were washed and permeabilized on ice using Perm III Buffer (558050; BD Biosciences). Cells were stained with PE anti-PSTAT1 antibody (562069; BD Biosciences) for 30 min and analyzed by flow cytometry.

JAK2 (JH1) = JAK2 (JH1) (Homo sapiens, UniProt O60674); assay: JH1 kinase assay, HTRF KinEASE-TK; format: biochemical
Sequence of JAK2 (JH1) (O60674 849-1124 limits assumed): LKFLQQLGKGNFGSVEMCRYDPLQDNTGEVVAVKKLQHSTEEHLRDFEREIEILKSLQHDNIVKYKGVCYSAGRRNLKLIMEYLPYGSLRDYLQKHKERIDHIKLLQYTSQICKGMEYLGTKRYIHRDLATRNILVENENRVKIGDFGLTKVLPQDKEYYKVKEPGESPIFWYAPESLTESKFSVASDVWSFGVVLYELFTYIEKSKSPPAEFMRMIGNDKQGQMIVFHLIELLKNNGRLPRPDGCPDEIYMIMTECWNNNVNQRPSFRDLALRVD
Description: (§2) We measured the ability of a compound to bind to JAK1/2/3 and the TYK2 JH1 domain by using HTRF® KinEASE™-TK kits (Millipore, Bedford, MA, USA). JAK1/2/3 and the TYK2 JH1 domain in assay buffer were added to various concentrations of QL-1200186 and incubated for 15 min at RT. Then, the plate was incubated with the biotin-labeled TK substrate and adenosine triphosphate for 45 min at RT. Next, SA-XL665 and TK antibody-Eu3 were added to the detection buffer and incubated for 1 h at RT. The HTRF signal was measured on a plate reader (Envision).

TYK2 JH1 domain = target: T1, TYK2 JH1 domain (Homo sapiens, UniProt P29597); assay: JH1 kinase assay, HTRF KinEASE-TK; format: biochemical
T1 construct: JAK1/2/3 and the TYK2 JH1 domain in assay buffer were added
T1 sequence (P29597 897-1176 limits assumed): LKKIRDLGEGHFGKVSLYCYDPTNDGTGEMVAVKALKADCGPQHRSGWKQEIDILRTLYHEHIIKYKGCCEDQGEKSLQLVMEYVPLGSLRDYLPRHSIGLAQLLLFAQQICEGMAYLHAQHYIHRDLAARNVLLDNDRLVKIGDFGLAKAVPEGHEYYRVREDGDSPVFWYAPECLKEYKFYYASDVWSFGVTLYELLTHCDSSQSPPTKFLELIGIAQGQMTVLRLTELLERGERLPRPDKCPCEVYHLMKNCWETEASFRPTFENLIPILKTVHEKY
Description: as §2

JAK3 (JH1) = JAK3 (JH1) (Homo sapiens, UniProt P52333); assay: JH1 kinase assay, HTRF KinEASE-TK; format: biochemical
Sequence of JAK3 (JH1) (P52333 822-1111 limits assumed): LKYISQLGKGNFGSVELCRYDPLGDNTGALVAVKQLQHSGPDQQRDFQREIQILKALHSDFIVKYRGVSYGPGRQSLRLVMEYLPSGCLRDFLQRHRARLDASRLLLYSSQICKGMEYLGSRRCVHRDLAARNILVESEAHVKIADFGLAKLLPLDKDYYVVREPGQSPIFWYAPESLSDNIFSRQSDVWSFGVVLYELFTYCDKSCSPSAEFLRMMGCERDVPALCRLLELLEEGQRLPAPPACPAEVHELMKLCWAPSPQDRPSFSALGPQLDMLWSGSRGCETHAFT
Description: as §2

JAK2/JAK2 = assay: TPO-stimulated pSTAT3/STAT5 in platelets of human whole blood; format: cell-based
Description: Stimulation was terminated by adding Lyse/Fix buffer. Staining with BUV786 mouse anti-human CD61 antibody (744384; BD Biosciences) was carried out, followed by washing, permeabilization and staining with PE mouse anti-human STAT3 antibody (651004; BD Biosciences) and APC mouse anti-human STAT5 antibody (562076; BD Biosciences), as described above. The expression of p-STAT3 and STAT5 was quantified by the MFI after the number of CD61-positive platelets was optimized.

[4] = dogs, data not shown
TYK2/JAK1 [5] = assay: IL-23-induced pSTAT3 in human Th17 cells; format: cell-based
Description: Human naïve CD4^+ T cells were separated using a human naïve CD4^+ T-cell isolation kit (StemCell, #17,852), and then cells were stimulated with anti-CD3 monoclonal antibody and anti-CD28 monoclonal antibody for 7–10 days under the following Th17-skewing treatments: IL-6, IL-23, IL-1β and transforming growth factor-β. Half of the medium was replaced with fresh medium containing a stimulant to induce differentiation every other day. Th17 cells were incubated overnight at 37 °C for deactivation. Cells were reinoculated on 96-well plates and cocultured with gradient-diluted QL-1200186 for 1 h and then stimulated with recombinant human IL-23 (ACRO: #IL-B-H52 WS) for 0.5 h. Cells were collected, and phosphorylation of STAT3 was quantified according to the MFI.

JAK1 (JH1) = JAK1 (JH1) (Homo sapiens, UniProt P23458); assay: JH1 kinase assay, HTRF KinEASE-TK; format: biochemical
Sequence of JAK1 (JH1) (P23458 875-1153 limits assumed): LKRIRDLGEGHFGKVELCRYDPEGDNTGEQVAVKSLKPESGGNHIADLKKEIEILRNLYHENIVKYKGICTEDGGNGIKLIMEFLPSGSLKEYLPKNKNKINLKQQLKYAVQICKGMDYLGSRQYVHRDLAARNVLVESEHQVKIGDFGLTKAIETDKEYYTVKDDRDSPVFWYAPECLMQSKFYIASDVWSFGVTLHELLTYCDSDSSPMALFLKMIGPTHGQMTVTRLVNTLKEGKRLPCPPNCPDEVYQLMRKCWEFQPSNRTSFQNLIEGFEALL
Description: We measured the ability of a compound to bind to JAK1/2/3 and the TYK2 JH1 domain by using HTRF® KinEASE™-TK kits (Millipore, Bedford, MA, USA). […] Next, SA-XL665 and TK antibody-Eu3 were added to the detection buffer and incubated for 1 h at RT. The HTRF signal was measured on a plate reader (Envision).

With `CNC(=O)c1cnc2cc1Nc1cc(cc(-c3ccn(C)n3)c1OC)CCOCc1cccc(n1)N2` [QL-1200186, 5^6-methoxy-N-methyl-5^5-(1-methyl-1H-pyrazol-3-yl)-8-oxa-2,4-diaza-1(2,6),3(2,4)-dipyridina-5(1,3)-benzenacyclononaphane-3^5-carboxamide] the “inhibition rates for all 207 kinases tested” value [1] was “below 50%”, the “Metabolic Stability L.M. T1/2” value ([2]; Dog) was 1.42 h and the “Metabolic Stability L.M. T1/2” value ([2]; Human) was > 3.107 h. For the same compound, the “Metabolic Stability L.M. T1/2” value ([2]; Monkey) was 1.2 h, the “Metabolic Stability L.M. T1/2” value ([2]; Mouse) was 1.28 h and the “Metabolic Stability L.M. T1/2” value ([2]; Rat) was 1.823 h. The “PPB (%, free)” value (Plasma protein binding; Dog) was 3.7%, the “PPB (%, free)” value (Plasma protein binding; Human) was 0.844% and the “PPB (%, free)” value (Plasma protein binding; Monkey) was 2.8%. For the same compound, the “PPB (%, free)” value (Plasma protein binding; Mouse) was 0.201%, the “PPB (%, free)” value (Plasma protein binding; Rat) was 1.3% and the IC50 (TYK2/JAK1 [3]) was 0.00143 µM. The IC50 (JAK2 (JH1)) was > 9.9 µM, the “Kinase assay (JH1) JAK2 IC50” value (JAK2 (JH1)) was “did not show inhibitory activity” and the IC50 (TYK2 JH1 domain) was > 9.9 µM. For the same compound, the “Kinase assay (JH1) TYK2 IC50” value (TYK2 JH1 domain) was “did not show inhibitory activity”, the IC50 (JAK3 (JH1)) was > 9.9 µM and the “Kinase assay (JH1) JAK3 IC50” value (JAK3 (JH1)) was “did not show inhibitory activity”. The “TPO-pSTAT3/STAT5 in human whole blood (JAK2/JAK2) inhibition” value (JAK2/JAK2; @10μM) was “no inhibition @10μM”, the “activity in thrombopoietin (TPO)-induced JAK2/JAK2 signaling” value (JAK2/JAK2; human whole blood) was “no activity” and the “safety in toxicological studies” value [4] was “excellent safety”. For the same compound, the IC50 (TYK2/JAK1 [5]) was 0.00103 µM, the IC50 (JAK1 (JH1)) was > 9.9 µM and the “Kinase assay (JH1) JAK1 IC50” value (JAK1 (JH1)) was “did not show inhibitory activity”.
